# Test results as given in publication PMC9318729 (Toxins, 2022).
# Read-outs that look alike come from different tables or passages of the source. No end group written: not given here.
# Columns and labels:
# A549 cells [1] = assay: Effect of pathway inhibitors on Smp24-induced cytotoxicity (MTT and LDH release); format: cell-based, human; details: inhibitor pre-incubated 30 min (40 μM Necrostatin-1, 1 μM Cyclosporine A), then 5 μM Smp24 for 12 h
# Procedure: MTT assay was performed to analyze cellular viability as previously reported by us. […] […] After incubation, 10 µL MTT (5 mg/mL) was added before incubation for 4 h at 37 °C in the dark. Subsequently, the cell medium was discarded, and 200 µL DMSO was applied into each well before the absorbance value at 490 nm was determined via the microplate reader (Tecan Company, Männedorf, Switzerland). Cell proliferation was further detected by the BeyoClick™ EdU cell proliferation kit with Alexa Fluor 488 (Beyotime Institute of Biotechnology, Shanghai, China) according to the protocol of manufacturer. In brief, A549 cells (2 × 10^5 cells/well) were grown in 6-well plates and exposed to different concentrations of Smp24 (0, 1.25, 2.5 and 5 μM) for 24 h. Then, the cells were incubated with EdU for 2 h and stained with Alexa Fluor 488 for 30 min in the dark before cell fluorescence intensity was measured by flow cytometry (Becton Dickinson Company, Franklin Lakes, NJ, USA). The experiments had been performed in triplicate.
# The LDH release assay was carried out with a commercial kit (Beyotime Institute of Biotechnology, Shanghai, China) following the manufacturer’s manual. […] Thereafter, a microplate reader (Tecan Company, Männedorf, Switzerland) was used to measure the absorbance value at 490 nm. […]
# A549 xenograft = A549 xenograft mice model, in vivo antitumor experiment; design: species or system BALB/c nude mice; details: 2 mg/kg every three days for 18 days, n = 5
# Procedure: A total of 10 BALB/c nude mice of both sexes (18–20 g, 6 weeks) were acquired from the Laboratory Animal Center of Southern Medical University and were raised in a specific pathogen-free mini-barrier system of the central animal facility of Southern Medical University under controlled conditions (60% humidity, 21 ± 2 °C room temperature, and 12 h light-dark cycle). The experimental protocols (ethical approval number: L2019226 on 11 November 2019) involving animals were approved by the Animal Ethics Committee of Southern Medical University and were implemented in the light of the international regulations for animal research. The animals were placed in an induction chamber, and anesthesia was induced with 5% isoflurane before sacrificed by cervical dislocation.
# First, 5 × 10^6 A549 cells with viability over 90% were inoculated subcutaneously into the right flank per mouse. Tumor growth was examined daily by palpation and the diameter was measured with calipers in two planes. Tumor volumes were counted with the following formula: volume (mm^3) = (smallest diameter)^2 × (largest diameter)/2. Then, the mice were randomized into two groups (n = 5 mice/group) for physiological saline and Smp24 treatment. […] The body weight of mice and tumor volumes were recorded daily. […]
# Acute toxicity analysis = format: in vivo, mice; details: 5 and 10 mg/kg intraperitoneal, 3 animals per group
# Procedure: To detect the acute toxicity of Smp24 in vivo, the mice were weighed and randomly divided into three groups with 3 animals each, and Smp24 (5 mg/kg and 10 mg/kg) and saline were intraperitoneally administered into mice of different groups. At 48 h after injection, serum and organ tissues from mice were collected for blood biochemical detection and organ weight measurement, respectively.
# MRC-5 cells = assay: MTT cell viability assay, normal cells; format: cell-based; details: 24 h treatment, mean ± SEM (n = 3), read-out: IC50 against MRC-5 normal cells
# Procedure: (§1) MTT assay was performed to analyze cellular viability as previously reported by us. Briefly, A549, H3122, PC-9, H460 and MRC-5 cells (1 × 10^4 cells/well) were grown in 96-well plates and exposed to the different concentrations of Smp24 (1.25–20 μM) with 24 h. […] After incubation, 10 µL MTT (5 mg/mL) was added before incubation for 4 h at 37 °C in the dark. Subsequently, the cell medium was discarded, and 200 µL DMSO was applied into each well before the absorbance value at 490 nm was determined via the microplate reader (Tecan Company, Männedorf, Switzerland). Cell proliferation was further detected by the BeyoClick™ EdU cell proliferation kit with Alexa Fluor 488 (Beyotime Institute of Biotechnology, Shanghai, China) according to the protocol of manufacturer. In brief, A549 cells (2 × 10^5 cells/well) were grown in 6-well plates and exposed to different concentrations of Smp24 (0, 1.25, 2.5 and 5 μM) for 24 h. Then, the cells were incubated with EdU for 2 h and stained with Alexa Fluor 488 for 30 min in the dark before cell fluorescence intensity was measured by flow cytometry (Becton Dickinson Company, Franklin Lakes, NJ, USA). The experiments had been performed in triplicate.
# H460 cells = assay: MTT cell viability assay; format: cell-based, human; details: 24 h treatment
# Procedure: as §1
# PC-9 cells = assay: MTT cell viability assay; format: cell-based, human; details: 24 h treatment
# Procedure: as §1
# H3122 cells = assay: MTT cell viability assay; format: cell-based, human; details: 24 h treatment
# Procedure: as §1
# A549 cells [2] = assay: MTT cell viability assay; format: cell-based, human; details: 24 h treatment
# Procedure: as §1
# NSCLC tumor = details: subcutaneous injection, cited from earlier work
# Procedure: For most peptides, despite the cogent evidence about their antitumor effects in vitro, their clinical applications have met with major obstacles owing to several issues, including their non-specific cellular cytotoxicity and rapid degradation in the blood. In order to further verify the antitumor effects of Smp24 in vivo, a tumor-burdened experiment was carried out. […] Furthermore, it ...
compound,measurement,setting,value
CN1C(=O)C(Cc2c[nH]c3ccccc23)NC1=S (stereo not shown) [Necrostatin-1],Inhibition of Smp24-induced cytotoxicity and necrosis of A549,A549 cells [1],can inhibit
IWSFLIKAATKLLPSLFGGGKKDS [Smp24],"Weight changes of body and organs (heart, lung, liver, spleen, kidney)",A549 xenograft,did not affect
same,Animal death after the first day's injection,Acute toxicity analysis,no animal death
same,"Heart, lung, liver, spleen and kidney weights",Acute toxicity analysis; 48 h after injection,did not change significantly
same,"Plasma AST, ALT, BUN and Cre",Acute toxicity analysis; 48 h after injection,did not change significantly
same,IC50,MRC-5 cells,~14.7 µM
same,"Selectivity index, H460",H460 cells; normal cells MRC-5,2.07
same,IC50,"H460 cells; MTT, mean ± SEM (n = 3), read-out: IC50 against H460 cells",~7.07 µM
same,"Selectivity index, PC-9",PC-9 cells; normal cells MRC-5,2.32
same,IC50,"PC-9 cells; MTT, mean ± SEM (n = 3), read-out: IC50 against PC-9 cells",~6.34 µM
same,"Selectivity index, H3122",H3122 cells; normal cells MRC-5,3.16
same,IC50,"H3122 cells; MTT, mean ± SEM (n = 3), read-out: IC50 against H3122 cells",~4.64 µM
same,"Selectivity index, A549",A549 cells [2]; normal cells MRC-5,3.61
same,IC50,"A549 cells [2]; MTT, mean ± SEM (n = 3), read-out: IC50 against A549 cells",~4.06 µM
melittin,Suppression of NSCLC tumor growth,NSCLC tumor; 0.5 mg/kg,27%
same,Suppression of NSCLC tumor growth,NSCLC tumor; 10 mg/kg,61%
